Experimental data: US9833497B2, “Human originated EGF domain proteins and use of the same” (CHENGDU SOURCEBIO LIMITED-LIABILITY COMPANY, priority 2013, dated 2017)

How the values were obtained:
Assay type in all cases: cell-based
E. coli DH5α = assay: Antibacterial activity: MIC and growth curve against E. coli DH5α in 96-well plate; settings: minimal inhibitory concentration against E. coli DH5α; 96-well plate, 5×10^5 CFU/mL, 37° C., judged after 8 h
Summary of the method: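 Log-phase DH5α (OD600 about 0.5, 37° C, 185 rpm in LB) was pelleted, resuspended in fresh LB and seeded at 5×10^5 CFU/mL with recombinant protein at 50, 25 and 12.5 μg/mL (two-fold series), in triplicate. Plates were shaken at 175 rpm, 37° C, and OD600 was read every 30 min. MIC was the lowest concentration with no growth.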

E. coli BL21 = assay: MIC against Gram-negative bacteria: E. coli BL21; settings: for MIC E. coli BL21 / MIC (μg/mL) E. coli BL21: 5×10^5 CFU/mL
Summary of the method: (§1)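 Broth microdilution, LB medium, final inoculum 5×10^5 CFU/mL from McFarland 0.5 cultures. Recombinant human EGF domain proteins tested in two-fold steps, n=3. MIC: lowest concentration, no growth.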

Pseudomonas aeruginosa = assay: MIC against Gram-negative bacteria: Pseudomonas aeruginosa; settings: for MIC P. aeruginosa / MIC (μg/mL) P. aeruginosa: 5×10^5 CFU/mL
Summary of the method: as §1

Klebsiella pneumonia = assay: MIC against Gram-negative bacteria: Klebsiella pneumonia; settings: for MIC K. pneumonia / MIC (μg/mL) K. pneumonia: 5×10^5 CFU/mL
Summary of the method: as §1

Enterobacter cloacae = assay: MIC against Gram-negative bacteria: Enterobacter cloacae; settings: for MIC E. cloacae / MIC (μg/mL) E. cloacae: 5×10^5 CFU/mL
Summary of the method: as §1

Aeromonas hydrophila = assay: MIC against Gram-negative bacteria: Aeromonas hydrophila; settings: for MIC A. hydrophila / MIC (μg/mL) A. hydrophila: 5×10^5 CFU/mL
Summary of the method: as §1

Citrobacter diversus = assay: MIC against Gram-negative bacteria: Citrobacter diversus; settings: for MIC C. diversus / MIC (μg/mL) C. diversus: 5×10^5 CFU/mL
Summary of the method: as §1

Moraxella catarrhalis = assay: MIC against Gram-negative bacteria: Moraxella catarrhalis; settings: for MIC M. catarrhalis / MIC (μg/mL) M. catarrhalis: 5×10^5 CFU/mL
Summary of the method: as §1

Proteus mirabilis = assay: MIC against Gram-negative bacteria: Proteus mirabilis; settings: for MIC P. mirabilis / MIC (μg/mL) P. mirabilis: 5×10^5 CFU/mL
Summary of the method: as §1

Proteus vulgaris = assay: MIC against Gram-negative bacteria: Proteus vulgaris; settings: for MIC P. vulgaris / MIC (μg/mL) P. vulgaris: 5×10^5 CFU/mL
Summary of the method: as §1

Serratia marcescens = assay: MIC against Gram-negative bacteria: Serratia marcescens; settings: for MIC S. marcescens / MIC (μg/mL) S. marcescens: 5×10^5 CFU/mL
Summary of the method: as §1

[1] = 10 h cultivation at 37° C., two-fold serial dilution
[2] = E. coli BL21, 96-well plate, 37° C., 10 h
[3] = Pseudomonas aeruginosa, 96-well plate, 37° C., 10 h
[4] = Klebsiella pneumonia, 96-well plate, 37° C., 10 h
[5] = Enterobacter cloacae, 96-well plate, 37° C., 10 h
[6] = Aeromonas hydrophila, 96-well plate, 37° C., 10 h
[7] = Citrobacter diversus, 96-well plate, 37° C., 10 h
[8] = Moraxella catarrhalis, 96-well plate, 37° C., 10 h
[9] = Proteus mirabilis, 96-well plate, 37° C., 10 h
[10] = Proteus vulgaris, 96-well plate, 37° C., 10 h
[11] = Serratia marcescens, 96-well plate, 37° C., 10 h
[12] = E. coli BL21, 10 h cultivation at 37° C.
[13] = P. aeruginosa, 10 h cultivation at 37° C.
[14] = K. pneumonia, 10 h cultivation at 37° C.
[15] = E. cloacae, 10 h cultivation at 37° C.
[16] = A. hydrophila, 10 h cultivation at 37° C.
[17] = C. diversus, 10 h cultivation at 37° C.
[18] = M. catarrhalis, 10 h cultivation at 37° C.
[19] = P. mirabilis, 10 h cultivation at 37° C.
[20] = P. vulgaris, 10 h cultivation at 37° C.
[21] = S. marcescens, 10 h cultivation at 37° C.

## PRT652 (DLDECAFPGVCPSGVCTNTAGSFSCKDCDGGYRPSPLGDSCE; listed as Homo sapiens)
E. coli DH5α
  MIC: 12.5 µg/mL
E. coli BL21; 96-well plate, 37° C., 10 h
  MIC E. coli BL21: 25 µg/mL
Pseudomonas aeruginosa; 96-well plate, 37° C., 10 h
  MIC P. aeruginosa: 50 µg/mL
Klebsiella pneumonia; 96-well plate, 37° C., 10 h
  MIC K. pneumonia: 25 µg/mL
Enterobacter cloacae; 96-well plate, 37° C., 10 h
  MIC E. cloacae: 12.5 µg/mL
Aeromonas hydrophila; 96-well plate, 37° C., 10 h
  MIC A. hydrophila: 25 µg/mL
Citrobacter diversus; 96-well plate, 37° C., 10 h
  MIC C. diversus: 50 µg/mL
Moraxella catarrhalis; 96-well plate, 37° C., 10 h
  MIC M. catarrhalis: 25 µg/mL
Proteus mirabilis; 96-well plate, 37° C., 10 h
  MIC P. mirabilis: 12.5 µg/mL
Proteus vulgaris; 96-well plate, 37° C., 10 h
  MIC P. vulgaris: 25 µg/mL
Serratia marcescens; 96-well plate, 37° C., 10 h
  MIC S. marcescens: 50 µg/mL

## PRT1156 (IIGQCQPHVCFHGNCSNITSNSFICECDEQFSGPFCE; listed as Homo sapiens)
E. coli DH5α
  MIC: 50 µg/mL
E. coli BL21; [1]
  MIC E. coli BL21: 25 µg/mL
Pseudomonas aeruginosa; [1]
  MIC P. aeruginosa: 12.5 µg/mL
Klebsiella pneumonia; [1]
  MIC K. pneumonia: 25 µg/mL
Enterobacter cloacae; [1]
  MIC E. cloacae: 25 µg/mL
Aeromonas hydrophila; [1]
  MIC A. hydrophila: 50 µg/mL
Citrobacter diversus; [1]
  MIC C. diversus: 25 µg/mL
Moraxella catarrhalis; [1]
  MIC M. catarrhalis: 12.5 µg/mL
Proteus mirabilis; [1]
  MIC P. mirabilis: 50 µg/mL
Proteus vulgaris; [1]
  MIC P. vulgaris: 12.5 µg/mL
Serratia marcescens; [1]
  MIC S. marcescens: 50 µg/mL

## PRT40 (KGIDCSDGFNGGCEQLCLQQTLPLPYDATSSTIFMFCGCVEEYKLAPDGKSCL; listed as Homo sapiens)
E. coli DH5α
  MIC: 25 µg/mL
E. coli BL21; [2]
  MIC (μg/mL) E. coli BL21: 12.5 µg/mL
Pseudomonas aeruginosa; [3]
  MIC (μg/mL) P. aeruginosa: 25 µg/mL
Klebsiella pneumonia; [4]
  MIC (μg/mL) K. pneumonia: 12.5 µg/mL
Enterobacter cloacae; [5]
  MIC (μg/mL) E. cloacae: 25 µg/mL
Aeromonas hydrophila; [6]
  MIC (μg/mL) A. hydrophila: 50 µg/mL
Citrobacter diversus; [7]
  MIC (μg/mL) C. diversus: 25 µg/mL
Moraxella catarrhalis; [8]
  MIC (μg/mL) M. catarrhalis: 12.5 µg/mL
Proteus mirabilis; [9]
  MIC (μg/mL) P. mirabilis: 12.5 µg/mL
Proteus vulgaris; [10]
  MIC (μg/mL) P. vulgaris: 25 µg/mL
Serratia marcescens; [11]
  MIC (μg/mL) S. marcescens: 12.5 µg/mL

## PRT929 (QIDECYSSPCLNDGRCIDLVNGYQCNCQPGTSGVNCE; listed as Homo sapiens)
E. coli DH5α
  MIC: 100 µg/mL
E. coli BL21; [12]
  MIC: 25 µg/mL
Pseudomonas aeruginosa; [13]
  MIC: 12.5 µg/mL
Klebsiella pneumonia; [14]
  MIC: 25 µg/mL
Enterobacter cloacae; [15]
  MIC: 50 µg/mL
Aeromonas hydrophila; [16]
  MIC: 25 µg/mL
Citrobacter diversus; [17]
  MIC: 12.5 µg/mL
Moraxella catarrhalis; [18]
  MIC: 50 µg/mL
Proteus mirabilis; [19]
  MIC: 12.5 µg/mL
Proteus vulgaris; [20]
  MIC: 50 µg/mL
Serratia marcescens; [21]
  MIC: 12.5 µg/mL

## PRT77 (RSGRCTPGVCKNGGTCVNLLVGGFKCDCPSGDFEKPYCQ; listed as Homo sapiens)
E. coli DH5α
  MIC: 25 µg/mL
E. coli BL21; [2]
  MIC (μg/mL) E. coli BL21: 12.5 µg/mL
Pseudomonas aeruginosa; [3]
  MIC (μg/mL) P. aeruginosa: 25 µg/mL
Klebsiella pneumonia; [4]
  MIC (μg/mL) K. pneumonia: 50 µg/mL
Enterobacter cloacae; [5]
  MIC (μg/mL) E. cloacae: 25 µg/mL
Aeromonas hydrophila; [6]
  MIC (μg/mL) A. hydrophila: 12.5 µg/mL
Citrobacter diversus; [7]
  MIC (μg/mL) C. diversus: 50 µg/mL
Moraxella catarrhalis; [8]
  MIC (μg/mL) M. catarrhalis: 12.5 µg/mL
Proteus mirabilis; [9]
  MIC (μg/mL) P. mirabilis: 50 µg/mL
Proteus vulgaris; [10]
  MIC (μg/mL) P. vulgaris: 50 µg/mL
Serratia marcescens; [11]
  MIC (μg/mL) S. marcescens: 50 µg/mL

## PRT608 (CDCNGRSQECYFDPELYRSTGHGGHCTNCQDNTDGAHCERCRENFFRLGNNEACSS; listed as Homo sapiens)
E. coli DH5α
  MIC: 12.5 µg/mL
E. coli BL21; 96-well plate, 37° C., 10 h
  MIC E. coli BL21: 50 µg/mL
Pseudomonas aeruginosa; 96-well plate, 37° C., 10 h
  MIC P. aeruginosa: 12.5 µg/mL
Klebsiella pneumonia; 96-well plate, 37° C., 10 h
  MIC K. pneumonia: 50 µg/mL
Enterobacter cloacae; 96-well plate, 37° C., 10 h
  MIC E. cloacae: 25 µg/mL
Aeromonas hydrophila; 96-well plate, 37° C., 10 h
  MIC A. hydrophila: 12.5 µg/mL
Citrobacter diversus; 96-well plate, 37° C., 10 h
  MIC C. diversus: 25 µg/mL
Moraxella catarrhalis; 96-well plate, 37° C., 10 h
  MIC M. catarrhalis: 50 µg/mL
Proteus mirabilis; 96-well plate, 37° C., 10 h
  MIC P. mirabilis: 25 µg/mL
Proteus vulgaris; 96-well plate, 37° C., 10 h
  MIC P. vulgaris: 12.5 µg/mL
Serratia marcescens; 96-well plate, 37° C., 10 h
  MIC S. marcescens: 25 µg/mL

## PRT793 (YGEACQQICSCQNGADCDSVTGKCTCAPGFKGIDCS; listed as Homo sapiens)
E. coli DH5α
  MIC: 25 µg/mL
E. coli BL21; [12]
  MIC (μg/mL) E. coli BL21: 12.5 µg/mL
Pseudomonas aeruginosa; [13]
  MIC (μg/mL) P. aeruginosa: 50 µg/mL
Klebsiella pneumonia; [14]
  MIC (μg/mL) K. pneumonia: 12.5 µg/mL
Enterobacter cloacae; [15]
  MIC (μg/mL) E. cloacae: 25 µg/mL
Aeromonas hydrophila; [16]
  MIC (μg/mL) A. hydrophila: 50 µg/mL
Citrobacter diversus; [17]
  MIC (μg/mL) C. diversus: 25 µg/mL
Moraxella catarrhalis; [18]
  MIC (μg/mL) M. catarrhalis: 12.5 µg/mL
Proteus mirabilis; [19]
  MIC (μg/mL) P. mirabilis: 25 µg/mL
Proteus vulgaris; [20]
  MIC (μg/mL) P. vulgaris: 50 µg/mL
Serratia marcescens; [21]
  MIC (μg/mL) S. marcescens: 12.5 µg/mL
